Test results as given in ChEMBL document CHEMBL1157967, “Triterpenoid saponins from the fruits of Caryocar villosum” (J Nat Prod, 2006).
The source made the active and inactive calls.

Experiments:
Format in all cases: functional, organism-based
Escherichia coli = test: Antibacterial activity against Escherichia coli at 50 ug by agar diffusion method
Enterococcus faecalis = test: Antibacterial activity against Enterococcus faecalis at 50 ug by agar diffusion method
[1] = system: Mycolicibacterium smegmatis; test: Antibacterial activity against Mycobacterium smegmatis at 50 ug by agar diffusion method
Pseudomonas aeruginosa = test: Antibacterial activity against Pseudomonas aeruginosa at 50 ug by agar diffusion method
Staphylococcus aureus = test: Antibacterial activity against Staphylococcus aureus at 50 ug by agar diffusion method

Measured: Activity

CC1(C)CC[C@]2(C(=O)O[C@@H]3O[C@H](CO)[C@@H](O)[C@H](O)[C@H]3O)CC[C@]3(C)C(=CC[C@@H]4[C@@]5(C)C[C@H](O)[C@H](O[C@@H]6O[C@H](C(=O)O)[C@@H](O)[C@H](O[C@@H]7O[C@H](CO)[C@H](O)[C@H](O)[C@H]7O)[C@H]6O)C(C)(C)[C@@H]5CC[C@]43C)[C@@H]2C1
inactive: all assays above

CC1(C)CC[C@]2(C(=O)O)CC[C@]3(C)C(=CC[C@@H]4[C@@]5(C)CC[C@H](O[C@@H]6O[C@H](CO)[C@@H](O)[C@H](O[C@@H]7O[C@H](CO)[C@H](O)[C@H](O)[C@H]7O)[C@H]6O)[C@@](C)(CO)[C@@H]5CC[C@]43C)[C@@H]2C1
inactive: all assays above

CC1(C)CC[C@]2(C(=O)O[C@@H]3O[C@H](CO)[C@@H](O)[C@H](O)[C@H]3O)CC[C@]3(C)C(=CC[C@@H]4[C@@]5(C)CC[C@H](O[C@@H]6O[C@H](CO)[C@H](O)[C@H](O)[C@H]6O[C@@H]6O[C@H](CO)[C@@H](O)[C@H](O)[C@H]6O)[C@@](C)(CO)[C@@H]5CC[C@]43C)[C@@H]2C1
inactive: all assays above

CC1(C)CC[C@]2(C(=O)O[C@@H]3O[C@H](CO)[C@@H](O)[C@H](O)[C@H]3O)CC[C@]3(C)C(=CC[C@@H]4[C@@]5(C)C[C@H](O)[C@H](O[C@@H]6O[C@H](C(=O)O)[C@@H](O)[C@H](O[C@@H]7O[C@H](CO)[C@H](O[C@@H]8O[C@H](CO)[C@H](O)[C@H](O[C@@H]9O[C@H](CO)[C@H](O)[C@H](O[C@@H]%10OC[C@@H](O)[C@H](O)[C@H]%10O)[C@H]9O)[C@H]8O)[C@H](O)[C@H]7O)[C@H]6O)C(C)(C)[C@@H]5CC[C@]43C)[C@@H]2C1
inactive: all assays above

CC1(C)CC[C@]2(C(=O)O)CC[C@]3(C)C(=CC[C@@H]4[C@@]5(C)C[C@H](O)[C@H](O[C@@H]6O[C@H](CO)[C@@H](O)[C@H](O[C@@H]7O[C@H](CO)[C@H](O)[C@H](O)[C@H]7O)[C@H]6O)[C@@](C)(CO)[C@@H]5CC[C@]43C)[C@@H]2C1
inactive: all assays above
